Experimental data taken from ChEMBL document CHEMBL3046389, “Synthesis and biological evaluation of novel hydroquinone dimethyl ethers as potential anticancer and antimicrobial agents” (2013).
Converted amounts (≈) assume the structure as drawn.

What was measured:
Assay type in all cases: functional
HOP-62 = experiment: Anticancer activity against Homo sapiens (human) HOP62 cells after 48 hr by SRB assay; details: HOP-62, 48 h; for CC50: read-out: LC50 (the source's name)
A549 = experiment: Anticancer activity against Homo sapiens (human) A549/ATCC cells after 48 hr by SRB assay; details: A549, 48 h; for CC50: read-out: LC50 (the source's name)
K562 = experiment: Anticancer activity against Homo sapiens (human) K562 cells after 48 hr by SRB assay; details: K562, 48 h; for CC50: read-out: LC50 (the source's name)
HL-60(TB) [1] = experiment: Anticancer activity against Homo sapiens (human) HL-60(TB) cells after 48 hr by SRB assay; details: HL-60, 48 h; for CC50: read-out: LC50 (the source's name)
NCI-H460 = experiment: Growth inhibition of Homo sapiens (human) NCI-H460 cells at 10 uM after 48 hr by SRB assay; details: NCI-H460, 48 h, read-out: GI
MDA-MB-468 = experiment: Growth inhibition of Homo sapiens (human) MDA-MB-468 cells at 10 uM after 48 hr by SRB assay; details: MDA-MB-468, 48 h, read-out: GI
MCF7 = experiment: Growth inhibition of Homo sapiens (human) MCF7 cells at 10 uM after 48 hr by SRB assay; details: MCF7, 48 h, read-out: GI
SN12C = experiment: Growth inhibition of Homo sapiens (human) SN12C cells at 10 uM after 48 hr by SRB assay; details: read-out: GI
Pseudomonas aeruginosa = experiment: Antimicrobial activity against Pseudomonas aeruginosa ATCC 10145 after 48 hr by two-fold serial broth dilution method; details: ATCC 10145, 48 h
Malme-3M = experiment: Anticancer activity against Homo sapiens (human) MALME-3M cells after 48 hr by SRB assay; details: for CC50: read-out: LC50 (the source's name)
KM12 = experiment: Anticancer activity against Homo sapiens (human) KM12 cells after 48 hr by SRB assay; details: KM12, 48 h; for CC50: read-out: LC50 (the source's name)
NCI-H23 = experiment: Anticancer activity against Homo sapiens (human) NCI-H23 cells after 48 hr by SRB assay; details: NCI-H23, 48 h; for CC50: read-out: LC50 (the source's name)
HOP-92 = experiment: Anticancer activity against Homo sapiens (human) HOP92 cells after 48 hr by SRB assay; details: HOP-92, 48 h
MOLT-4 = experiment: Growth inhibition of Homo sapiens (human) MOLT4 cells at 10 uM after 48 hr by SRB assay; details: MOLT-4, 48 h, read-out: GI
HL-60(TB) [2] = experiment: Growth inhibition of Homo sapiens (human) HL-60(TB) cells at 10 uM after 48 hr by SRB assay; details: HL-60, 48 h, read-out: GI
UO-31 = experiment: Anticancer activity against Homo sapiens (human) UO31 cells after 48 hr by SRB assay; details: UO-31, 48 h
CAKI-1 = experiment: Anticancer activity against Homo sapiens (human) CAKI-1 cells after 48 hr by SRB assay; details: CAKI-1, 48 h; for CC50: read-out: LC50 (the source's name)
A498 = experiment: Anticancer activity against Homo sapiens (human) A498 cells after 48 hr by SRB assay; details: A498, 48 h
NCI/ADR-RES = experiment: Anticancer activity against Homo sapiens (human) NCI/ADR-RES cells after 48 hr by SRB assay
OVCAR-5 = experiment: Anticancer activity against Homo sapiens (human) OVCAR5 cells after 48 hr by SRB assay; details: OVCAR-5, 48 h; for CC50: read-out: LC50 (the source's name)
UACC-62 [3] = experiment: Anticancer activity against Homo sapiens (human) UACC62 cells after 48 hr by SRB assay; details: UACC-62, 48 h
SK-MEL-5 = experiment: Anticancer activity against Homo sapiens (human) SK-MEL-5 cells after 48 hr by SRB assay; details: SK-MEL-5, 48 h
UACC-257 = experiment: Anticancer activity against Homo sapiens (human) UACC257 cells after 48 hr by SRB assay; details: UACC-257, 48 h
SK-MEL-28 = experiment: Anticancer activity against Homo sapiens (human) SK-MEL-28 cells after 48 hr by SRB assay; details: SK-MEL-28, 48 h
MDA-MB-435 = experiment: Anticancer activity against Homo sapiens (human) MDA-MB-435 cells after 48 hr by SRB assay; details: MDA-MB-435, 48 h; for CC50: read-out: LC50 (the source's name)
IGROV-1 = experiment: Growth inhibition of Homo sapiens (human) IGROV1 cells at 10 uM after 48 hr by SRB assay; details: IGROV-1, 48 h, read-out: GI
UACC-62 [4] = experiment: Growth inhibition of Homo sapiens (human) UACC62 cells at 10 uM after 48 hr by SRB assay; details: UACC-62, 48 h, read-out: GI
M14 = experiment: Growth inhibition of Homo sapiens (human) M14 cells at 10 uM after 48 hr by SRB assay; details: M14, 48 h, read-out: GI
SNB-75 = experiment: Growth inhibition of Homo sapiens (human) SNB75 cells at 10 uM after 48 hr by SRB assay; details: SNB-75, 48 h, read-out: GI
HT-29 = experiment: Growth inhibition of Homo sapiens (human) HT-29 cells at 10 uM after 48 hr by SRB assay; details: HT-29, 48 h, read-out: GI
T47D = experiment: Growth inhibition of Homo sapiens (human) T47D cells at 10 uM after 48 hr by SRB assay; details: read-out: GI
Hs-578T = experiment: Growth inhibition of Homo sapiens (human) Hs 578T cells at 10 uM after 48 hr by SRB assay; details: read-out: GI
ACHN = experiment: Growth inhibition of Homo sapiens (human) ACHN cells at 10 uM after 48 hr by SRB assay; details: read-out: GI

Question: Which results are given for `COc1ccc(OC)c(/C=C/c2nnc(S)n2-c2ccc(Cl)cc2)c1`?
Answer: GI50 (HOP-62): 6.48 µM; TGI (HOP-62): > 100 µM; CC50 (HOP-62): > 100 µM; GI50 (A549): 9.07 µM; TGI (A549): > 100 µM; CC50 (A549): > 100 µM; GI50 (K562): 4.95 µM; TGI (K562): > 100 µM; CC50 (K562): > 100 µM; GI50 (HL-60(TB) [1]): 3.57 µM; TGI (HL-60(TB) [1]): > 100 µM; CC50 (HL-60(TB) [1]): > 100 µM; inhibition of growth at 10 µM (NCI-H460): 61.1%; inhibition of growth at 10 µM (MDA-MB-468): 61.2%; inhibition of growth at 10 µM (MCF7): 68%; inhibition of growth at 10 µM (SN12C): 33.8%; MBC (Pseudomonas aeruginosa): 100 µg/mL (≈ 267 µM); MIC (Pseudomonas aeruginosa): 50 µg/mL (≈ 134 µM); GI50 (Malme-3M): 70.6 µM; TGI (Malme-3M): > 100 µM; CC50 (Malme-3M): > 100 µM; GI50 (KM12): 4.02 µM; TGI (KM12): > 100 µM; CC50 (KM12): > 100 µM; GI50 (NCI-H23): 5.88 µM; TGI (NCI-H23): > 100 µM; CC50 (NCI-H23): > 100 µM; GI50 (HOP-92): 3.56 µM; TGI (HOP-92): > 100 µM; CC50 (HOP-92; read-out: LC50 (the source's name)): > 100 µM; inhibition of growth at 10 µM (MOLT-4): 47.2%; inhibition of growth at 10 µM (HL-60(TB) [2]): 95.7%; GI50 (UO-31): 2.25 µM; LC50 (50% lethal concentration) (UO-31): > 100 µM; GI50 (CAKI-1): 2.8 µM; CC50 (CAKI-1): > 100 µM; GI50 (A498): 6.66 µM; LC50 (A498): > 100 µM; TGI (A498): > 100 µM; GI50 (NCI/ADR-RES): 3.63 µM; LC50 (NCI/ADR-RES): > 100 µM; TGI (NCI/ADR-RES): > 100 µM; GI50 (OVCAR-5): 70.3 µM; TGI (OVCAR-5): > 100 µM; CC50 (OVCAR-5): > 100 µM; GI50 (UACC-62 [3]): 3.11 µM; LC50 (UACC-62 [3]): > 100 µM; TGI (UACC-62 [3]): > 100 µM; GI50 (SK-MEL-5): 3.58 µM; LC50 (SK-MEL-5): > 100 µM; TGI (SK-MEL-5): > 100 µM; GI50 (UACC-257): > 100 µM; LC50 (50% lethal concentration) (UACC-257): > 100 µM; TGI (UACC-257): > 100 µM; GI50 (SK-MEL-28): 11.1 µM; LC50 (concentration killing 50% of cells) (SK-MEL-28): > 100 µM; TGI (SK-MEL-28): > 100 µM; GI50 (MDA-MB-435): 2.83 µM; TGI (MDA-MB-435): > 100 µM; CC50 (MDA-MB-435): > 100 µM; inhibition of growth at 10 µM (IGROV-1): 59.9%; inhibition of growth at 10 µM (UACC-62 [4]): 57.2%; inhibition of growth at 10 µM (M14): 69%; inhibition of growth at 10 µM (SNB-75): 57.5%; inhibition of growth at 10 µM (HT-29): 34.6%

Question: What does the source list for `COc1ccc(OC)c(/C=C/c2nnc(Nc3ccc(Cl)cc3)o2)c1`?
Answer: GI50 (HOP-62): 2.71 µM; TGI (HOP-62): 7.68 µM; CC50 (HOP-62): 38.9 µM; GI50 (A549): 3.67 µM; TGI (A549): 17.8 µM; CC50 (A549): 78.6 µM; GI50 (K562): 92.8 µM; TGI (K562): > 100 µM; CC50 (K562): > 100 µM; GI50 (HL-60(TB) [1]): > 100 µM; TGI (HL-60(TB) [1]): > 100 µM; CC50 (HL-60(TB) [1]): > 100 µM; inhibition of growth at 10 µM (NCI-H460): 84.5%; inhibition of growth at 10 µM (MDA-MB-468): 34%; inhibition of growth at 10 µM (T47D): 105%; inhibition of growth at 10 µM (Hs-578T): 93.1%; inhibition of growth at 10 µM (SN12C): 55.1%; MBC (Pseudomonas aeruginosa): 100 µg/mL (≈ 279 µM); MIC (Pseudomonas aeruginosa): 100 µg/mL (≈ 279 µM); GI50 (Malme-3M): 9.87 µM; TGI (Malme-3M): 52.4 µM; CC50 (Malme-3M): > 100 µM; GI50 (KM12): 17.4 µM; TGI (KM12): > 100 µM; CC50 (KM12): > 100 µM; GI50 (NCI-H23): 21.7 µM; TGI (NCI-H23): > 100 µM; CC50 (NCI-H23): > 100 µM; GI50 (UO-31): 3.13 µM; LC50 (50% lethal concentration) (UO-31): 78 µM; TGI (UO-31): 12.6 µM; GI50 (CAKI-1): 6.02 µM; TGI (CAKI-1): > 100 µM; CC50 (CAKI-1): > 100 µM; GI50 (A498): 1.87 µM; LC50 (A498): > 100 µM; TGI (A498): 7.76 µM; inhibition of growth at 10 µM (ACHN): 67.4%; GI50 (NCI/ADR-RES): 7.62 µM; LC50 (NCI/ADR-RES): > 100 µM; TGI (NCI/ADR-RES): 98.1 µM; GI50 (OVCAR-5): 32.5 µM; TGI (OVCAR-5): > 100 µM; CC50 (OVCAR-5): > 100 µM; GI50 (UACC-62 [3]): 16.2 µM; LC50 (UACC-62 [3]): > 100 µM; TGI (UACC-62 [3]): > 100 µM; GI50 (SK-MEL-5): 7.17 µM; LC50 (SK-MEL-5): > 100 µM; TGI (SK-MEL-5): > 100 µM; GI50 (UACC-257): 21.3 µM; LC50 (50% lethal concentration) (UACC-257): > 100 µM; TGI (UACC-257): > 100 µM; GI50 (SK-MEL-28): 26.8 µM; LC50 (concentration killing 50% of cells) (SK-MEL-28): > 100 µM; TGI (SK-MEL-28): > 100 µM; GI50 (MDA-MB-435): 37 µM; TGI (MDA-MB-435): > 100 µM; CC50 (MDA-MB-435): > 100 µM; inhibition of growth at 10 µM (SNB-75): 84.2%
